The record followed here is patent US20260042769A1, “TRIARYL AGONISTS OF ALPHA-2 ADRENERGIC RECEPTORS” (ALCEPTOR THERAPEUTICS, INC., priority 2023, published 2026).

The target in this assay is T1, human ADRA2B receptor (Homo sapiens, UniProt P18089).
T1 construct: expressed in transfected cells
T1 sequence (P18089 1-450): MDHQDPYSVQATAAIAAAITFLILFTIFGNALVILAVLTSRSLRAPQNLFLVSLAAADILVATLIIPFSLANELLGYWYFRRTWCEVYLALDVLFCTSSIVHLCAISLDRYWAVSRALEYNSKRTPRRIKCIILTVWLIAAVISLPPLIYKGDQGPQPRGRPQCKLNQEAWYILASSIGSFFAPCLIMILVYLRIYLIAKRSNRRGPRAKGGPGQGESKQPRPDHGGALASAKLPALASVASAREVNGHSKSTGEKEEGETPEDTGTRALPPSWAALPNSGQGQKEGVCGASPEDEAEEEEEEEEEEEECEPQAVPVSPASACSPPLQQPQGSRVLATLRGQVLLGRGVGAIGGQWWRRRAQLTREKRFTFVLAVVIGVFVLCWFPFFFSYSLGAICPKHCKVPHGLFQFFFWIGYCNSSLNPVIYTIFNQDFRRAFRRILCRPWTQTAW
Kind of assay: ADRA2B arrestin agonist assay. The conditions noted are these: CHO-K1 cells stably expressing human ADRA2B; read-out: Beta-Arrestin - Human Alpha2B EC50. The format is cell-based. A digest of the protocol: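 CHO-K1 cells stably expressing human ADRA2B, thawed from frozen stock and plated overnight, were treated with agonist for 2 h at 37 °C. Arrestin recruitment detected by luminescence after 2 h with detection reagents at room temperature.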

On to `CC(C)n1cc(C[C@H](c2c[nH]cn2)c2cccc3c2OCC3)cn1` [Compound 298, 4-[(S)-2-(2,3-dihydro-1-benzofuran-7-yl)-2-(4-imidazolyl)ethyl]-1-isopropylpyrazole], for which the half-maximal effective concentration (EC50) was less than 10 nM.
Consider `CN1CCc2cccc(C(Cc3cn(C)nn3)c3c[nH]cn3)c21` (stereo not shown) [Compound 387, 4-[2-(4-imidazolyl)-2-(1-methyl-7-indolinyl)ethyl]-1-methyl-1H-1,2,3-triazole], for which the EC50 lay within 50 to 500 nM.
As for `Cc1cc(C[C@@H](c2c[nH]cn2)c2cccc(C)c2F)ncn1` [Compound 143, 4-[(R)-2-(2-fluoro-3-tolyl)-2-(4-imidazolyl)ethyl]-6-methylpyrimidine], the figure is less than 10 nM.
In the case of `COCc1cccc(CC(c2c[nH]cn2)c2cccc(C)c2C)n1` (stereo not shown) [Compound 294, 4-{2-[6-(methoxymethyl)-2-pyridyl]-1-(2,3-xylyl)ethyl}imidazole] it was less than 10 nM; in that of `COc1nccc(CC(c2c[nH]cn2)c2cccc(C)c2F)n1` (stereo not shown) [Compound 155, 4-[2-(2-fluoro-3-tolyl)-2-(4-imidazolyl)ethyl]-2-methoxypyrimidine], less than 10 nM; in that of `Cc1cc(C[C@H](c2c[nH]cn2)c2cccc(C)c2F)ncn1` [Compound 144, 4-[(S)-2-(2-fluoro-3-tolyl)-2-(4-imidazolyl)ethyl]-6-methylpyrimidine], more than 500 nM.
In the case of `Cc1nccc(CC(c2c[nH]cn2)c2cccc3ccn(C)c23)n1` (stereo not shown) [Compound 342, 4-[2-(4-imidazolyl)-2-(1-methyl-7-indolyl)ethyl]-2-methylpyrimidine] it was less than 10 nM; in that of `Cc1nc(CC(c2c[nH]cn2)c2cccc(C)c2C)no1` (stereo not shown) [Compound 243, 3-[2-(4-imidazolyl)-2-(2,3-xylyl)ethyl]-5-methyl-1,2,4-oxadiazole-formic acid (1/1)], 50 to 500 nM; in that of `COc1nccc(CC(c2c[nH]cn2)c2cccc3c(C4CC4)noc23)n1` (stereo not shown) [Compound 357, 3-cyclopropyl-7-[1-(4-imidazolyl)-2-(2-methoxy-4-pyrimidinyl)ethyl]-1,2-benzisoxazole], more than 500 nM.
Take `COc1nccc(CC(c2cccc(C)c2)c2c[nH]cn2)n1` (stereo not shown) [Compound 337, 4-[2-(4-imidazolyl)-2-(m-tolyl)ethyl]-2-methoxypyrimidine]: the concentration giving a half-maximal response (EC50) was in the range of 10 to 50 nM.
For `COCc1nccc(CC(c2c[nH]cn2)c2cccc3c2OCC3)n1` (stereo not shown) [Compound 306, 4-[2-(2,3-dihydro-1-benzofuran-7-yl)-2-(4-imidazolyl)ethyl]-2-(methoxymethyl)pyrimidine], the EC50 is less than 10 nM.
As for `COc1nccc(C[C@@H](c2c[nH]cn2)c2cccc3ccn(C)c23)n1` [Compound 348, 4-[(R)-2-(4-imidazolyl)-2-(1-methyl-7-indolyl)ethyl]-2-methoxypyrimidine], the figure is less than 10 nM.
In the case of `Cc1nccc(CC(c2c[nH]cn2)c2cccc(Cl)c2C)n1` (stereo not shown) [Compound 158, 4-[2-(3-chloro-2-tolyl)-2-(4-imidazolyl)ethyl]-2-methylpyrimidine] it was less than 10 nM; in that of `Cc1cccc([C@H](Cc2ccnn2C)c2c[nH]cn2)c1F` [Compound 247, 5-[(S)-2-(2-fluoro-3-tolyl)-2-(4-imidazolyl)ethyl]-1-methylpyrazole], 50 to 500 nM; in that of `COc1nccc(CC(c2c[nH]cn2)c2cccc(F)c2C)n1` (stereo not shown) [Compound 154, 4-[2-(3-fluoro-2-tolyl)-2-(4-imidazolyl)ethyl]-2-methoxypyrimidine], 10 to 50 nM.
In the case of `c1cc2c(c([C@@H](Cc3cocn3)c3c[nH]cn3)c1)OCC2` [Compound 371, 4-[(R)-2-(2,3-dihydro-1-benzofuran-7-yl)-2-(4-imidazolyl)ethyl] 1,3-oxazole] it was 50 to 500 nM.
With `Cc1cccc(C(Cc2cccn3ccnc23)c2c[nH]cn2)c1C` (stereo not shown) [Compound 402, 4-[2-(1,3a-diaza-7-indenyl)-1-(2,3-xylyl)ethyl]imidazole], the EC50 fell in the range of 10 to 50 nM.
In the case of `Cc1nccc(C[C@H](c2c[nH]cn2)c2cccc3c2OCCCO3)n1` [Compound 352, 4-[(S)-2-(3,4-dihydro-2H-1,5-benzodioxepin-6-yl)-2-(4-imidazolyl)ethyl]-2-methylpyrimidine] it was more than 500 nM; in that of `COCc1nccc(C[C@H](c2c[nH]cn2)c2cccc(C)c2C)n1` [Compound 346, 4-[(S)-2-(4-imidazolyl)-2-(2,3-xylyl)ethyl]-2-(methoxymethyl)pyrimidine], more than 500 nM.
For `Cc1cccc(C(Cc2cncc(F)c2)c2c[nH]cn2)c1F` (stereo not shown) [Compound 322, 4-[2-(5-fluoro-3-pyridyl)-1-(2-fluoro-3-tolyl)ethyl]imidazole], the concentration giving a half-maximal response (EC50) was 10 to 50 nM.
In the case of `Cc1cccc([C@@H](Cc2ccnn2C)c2c[nH]cn2)c1F` [Compound 246, 5-[(R)-2-(2-fluoro-3-tolyl)-2-(4-imidazolyl)ethyl]-1-methylpyrazole] it was 50 to 500 nM; in that of `Cc1cccc([C@H](Cc2ccn(C3COC3)n2)c2c[nH]cn2)c1C` [Compound 296, 3-[(S)-2-(4-imidazolyl)-2-(2,3-xylyl)ethyl]-1-(3-oxetanyl)pyrazole], 10 to 50 nM.
In the case of `c1cc2c(c([C@@H](Cc3cocn3)c3c[nH]cn3)c1)OCCO2` [Compound 383, 4-[(R)-2-(2,3-dihydro-1,4-benzodioxin-5-yl)-2-(4-imidazolyl)ethyl] 1,3-oxazole] it was more than 500 nM; in that of `c1cc2c(c(C(Cc3ccc4nccn4c3)c3c[nH]cn3)c1)OCC2` (stereo not shown) [Compound 300], less than 10 nM; in that of `Cc1cccc([C@H](Cc2ccn(C(F)F)n2)c2c[nH]cn2)c1C` [Compound 280, 3-[(S)-2-(4-imidazolyl)-2-(2,3-xylyl)ethyl]-1-(difluoromethyl)pyrazole], less than 10 nM.
In the case of `COc1nccc(CC(c2c[nH]cn2)c2ccccc2OC2CC2)n1` (stereo not shown) [Compound 195, 4-[2-(o-cyclopropoxyphenyl)-2-(4-imidazolyl)ethyl]-2-methoxypyrimidine] it was 10 to 50 nM; in that of `c1cc2c(c([C@@H](Cc3cc[nH]n3)c3c[nH]cn3)c1)OCC2` [Compound 237, 3-[(R)-2-(2,3-dihydro-1-benzofuran-7-yl)-2-(4-imidazolyl)ethyl]pyrazole], more than 500 nM.
Consider `COc1cc(Cl)cc(CC(c2c[nH]cn2)c2cccc3c2OCC3)n1` (stereo not shown) [Compound 393, 4-[2-(4-chloro-6-methoxy-2-pyridyl)-1-(2,3-dihydro-1-benzofuran-7-yl)ethyl]imidazole], for which the concentration giving a half-maximal response (EC50) was in the range of 10 to 50 nM.
Regarding `Cc1nc(C[C@@H](c2c[nH]cn2)c2cccc(C)c2C)c(C)o1` [Compound 379, 4-[(R)-2-(4-imidazolyl)-2-(2,3-xylyl)ethyl]-2,5-dimethyl-1,3-oxazole], the EC50 was less than 10 nM.
As for `COc1cccc(C(Cc2cccnn2)c2c[nH]cn2)c1C` (stereo not shown) [Compound 140, 3-[2-(4-imidazolyl)-2 (3-methoxy-2-tolyl)ethyl]pyridazine], the figure is more than 500 nM; as for `Cc1cccc(CC(c2c[nH]cn2)c2cccc3ccn(C)c23)n1` (stereo not shown) [Compound 284, 4-[1-(1-methyl-7-indolyl)-2-(6-methyl-2-pyridyl)ethyl]imidazole], 10 to 50 nM.

For orientation: EC50 means the concentration needed to bring the measured effect to its halfway point.
